Laboratory results taken from patent US20030199571A1, “(Hetero) Bicyclymethanesulfonylamino-substituted hydroxamic acid derivatives” (priority 1999, published 2003).

What follows are compounds tested against T1, human recombinant collagenase (Homo sapiens, UniProt P03956) (assay: Collagenase inhibition assay (Cawston and Barrett)). Conditions: acetylated 3H type 1 bovine collagen, 37° C., 18 h.
T1 construct: made in house; host or cells: E. coli
T1 sequence (P03956 100-469): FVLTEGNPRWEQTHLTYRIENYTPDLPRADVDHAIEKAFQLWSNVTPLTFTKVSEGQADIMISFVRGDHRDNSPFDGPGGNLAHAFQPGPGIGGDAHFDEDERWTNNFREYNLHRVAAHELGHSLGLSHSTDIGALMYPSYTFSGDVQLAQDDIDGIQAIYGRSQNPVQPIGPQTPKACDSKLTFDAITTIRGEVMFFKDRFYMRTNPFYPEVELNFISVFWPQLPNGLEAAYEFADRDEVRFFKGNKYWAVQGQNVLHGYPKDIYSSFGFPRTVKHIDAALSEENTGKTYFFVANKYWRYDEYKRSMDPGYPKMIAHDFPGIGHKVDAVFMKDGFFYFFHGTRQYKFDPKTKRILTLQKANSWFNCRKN
Format: biochemical
Method: Procedure 2: The ability of test compounds to inhibit collagenase was investigated using the following procedure.
Collagenase Inhibition Assay:
The potency of compounds to act as inhibitors of collagenase was determined by the method of Cawston and Barrett (Anal. Biochem. 99, 340-345, 1979), hereby incorporated by reference, whereby a 1 mM solution of the inhibitor being tested or dilutions thereof, was incubated at 37° C. for 18 h with collagen and human recombinant collagenase, from synovial fibroblasts cloned, expressed and purified from E. coli, (buffered with 150 mM Tris, pH 7.6, containing 15 mM calcium chloride, 0.05% Brij 35, 200 mM sodium chloride and 0.02% sodium azide). The collagen was acetylated ^3H type 1 bovine collagen prepared by the method of Cawston and Murphy (methods in Enzymology 80, 711,1981) The samples were centrifuged to sediment undigested collagen and an aliquot of the radioactive supernatant removed for assay on a scintillation counter as a measure of hydrolysis. The collagenase activity in the presence of 1 mM inhibitor, or dilution thereof, was compared to activity in a control devoid of inhibitor and the results reported as that concentration effecting 50% of the collagenase (IC50).

IC50	SMILES
≥ 10 µM	CC(C)(C)[C@@H](NS(=O)(=O)Cc1ccc2sccc2c1)C(=O)NO [Example 43]
≥ 10 µM	O=C(NO)[C@@H](Cc1ccccc1)NS(=O)(=O)Cc1ccc2ccccc2c1 [Example 5]
≥ 10 µM	O=C(NO)[C@@H](CNS(=O)(=O)Cc1ccccc1)NS(=O)(=O)Cc1ccc2sccc2c1 [Example 69, (R)-2-(Benzo[b]thiophen-5-ylmethanesulfonylamino)-N-hydroxy-3-(phenylmethanesulfonylamino)-propionamide]
≥ 10 µM	O=C(NO)[C@H](NS(=O)(=O)Cc1ccc2ccccc2c1)c1ccc(O)cc1 [Example 12]
≥ 10 µM	O=C(NO)[C@@H](CCc1ccccc1)NS(=O)(=O)Cc1ccc2sccc2c1 [Example 38, (R)-2-(Benzo[b]thiophen-5-ylmethanesulfonylamino)-N-hydroxy-4-phenyl-butyramide]
≥ 10 µM	CC(C)(C)C[C@@H](NS(=O)(=O)Cc1ccc2sccc2c1)C(=O)NO [Example 42]
≥ 10 µM	O=C(NO)[C@@H](Cc1csc2ccccc12)NS(=O)(=O)Cc1ccc2ccccc2c1 [Example 14]
≥ 10 µM	O=C(NO)[C@H](NS(=O)(=O)Cc1ccc2sccc2c1)c1ccccc1 [Example 28, (R)-2-(Benzo[b]thiophen-5-ylmethanesulfonylamino)-N-hydroxy-2-phenylacetamide]
≥ 10 µM	O=C(NO)[C@H](NS(=O)(=O)C[C@@H]1CCc2ccccc2C1)c1ccccc1 [Example 29, (R)-2-Phenyl-2-[(R)-1-(1,2,3,4-tetrahydronaphthalen-2-yl)methanesulfonylamino]-N-hydroxyacetamide]
≥ 10 µM	O=C(NO)[C@H](NS(=O)(=O)Cc1ccc2sccc2c1)c1ccc(O)cc1 [Example 33]
≥ 10 µM	O=C(NO)[C@@H](Cc1c[nH]c2ccccc12)NS(=O)(=O)Cc1ccc2sccc2c1 [Example 31, (R)-2-(Benzo[b]thiophen-5-ylmethanesulfonylamino)-N-hydroxy-3-(1H-indol-3-yl) propionamide.]
≥ 10 µM	O=C(NO)[C@@H](CC1CCCCC1)NS(=O)(=O)Cc1ccc2ccccc2c1 [Example 9]
≥ 10 µM	CC(C)(C)C[C@@H](NS(=O)(=O)Cc1ccc2ccccc2c1)C(=O)NO [Example 6]
≥ 10 µM	CC(C)c1ccc([C@@H](NS(=O)(=O)Cc2ccc3sccc3c2)C(=O)NO)cc1 [Example 56, (R)-2-(Benzo[b]thiophen-5-ylmethanesulfonylamino)-2-(4-isopropylphenyl)-N-hydroxy-acetamide]
